The test system of experiment [1] is MDA 468 cells. The experiment is described as follows: MTT cytotoxicity assay, anticancer agent-sensitive line. To be noted: MDA 468, sensitive to anticancer agent. It counts as cell-based. The protocol:
(§1) An MTT assay was conducted through […] analysis on the reduction of yellow tetrazolium salt into purple formazan in the mitochondria of viable cells. Cells were seeded at a population of 1×10^5 cells/well in 24-well plates. After incubation for 24 hrs, the cells were exposed to doxorubicin. This anticancer agent was administered at a dose of 90 μM to MCF 7/DOX and 5 μM to MDA 231. A control was not treated with doxorubicin. On the very day of analysis, the culture medium in each well was substituted with a fresh medium containing MTT (3-(4,5-dimethylthiazol-2-yl)-2,5-diphenyltetrazolium) (Sigma) at a concentration of 0.5 mg per ml, followed by incubation therein for an additional 4 hrs. After the removal of the medium, 500 μl of DMSO was added to each well and the formazan crystals were dissolved using an orbital shaker. Cell viability was represented as a percentage of a test group to the control. These experiments were done in triplicate and repeated at least three times. For each experiment, the mean of three independent experiments and the standard deviations are given.
(§2) As measured through an MTT assay, almost all MCF 7 and MDA 468, both sensitive to anticancer agent, died, whereas apoptosis took place in about 50% of the anticancer agent-resistant cell lines.
(Tetrazolium dyes change colour on reduction, which living cells bring about.)

Experiment [2] concerns MCF 7 cells. The description is as above. The class given is cell-based. To be noted: MCF 7, sensitive to anticancer agent. The protocol: as §1, §2
The test system of experiment [3] is MCF 7/DOX cells (doxorubicin resistant). As to the kind of experiment: MTT cytotoxicity assay, doxorubicin with or without glucosamine. The class given is cell-based, human. The protocol:
(§3) Human breast cancer cell line MDA-231 (doxorubicin resistant) was purchased from ATCC. MCF-7/DOX (doxorubicin resistant) was obtained from Dr. Kenneth H. Cowan (University of Nebraska Medical Center, 986805 Nebraska Medical Center, Omaha, Nebr. 68198-6805, USA). These cell lines were maintained in media supplemented with 10% fetal bovine serum (Gibco BRL), 1 mM sodium pyruvate (Gibco BRL), and 100 U/ml penicillin-streptomycin (Gibco BRL) at 37° C. in a humid 5% CO2 atmosphere and subcultured every two or three days.
as §1
(§4) MTT assay was conducted to examine whether glucosamine increases the sensitivity of breast cancer cells to anticancer agents. MCF 7/DOX and MDA 231 cell lines, both resistant to anticancer agents, were treated with doxorubicin and glucosamine (1.0 to 10 mM) for 24 hrs. Controls were not treated with glucosamine, while doxorubicin was administered at concentrations of 5 μM to MDA-MB 231, and at a concentration of 90 μM to MCF-7/DOX.

Experiment [4] concerns MDA 231 cells (doxorubicin resistant). Described as above. It counts as cell-based, human. The protocol:
as §3, §1, §4

Experiment [5] concerns I-κBα in MCF7/DOX cells. As to the kind of experiment: Western blotting against I-κBα, cytoplasm fractions. The class given is cell-based, human. Particulars: MCF-7/DOX; cultured 1 hr; cytoplasm fraction. The protocol:
(§5) Glucosamine was analyzed for its effect on I-κBα degradation. For this, MCF7/DOX and MDA231 cells were cultured for 1 hr and cytoplasm fractions thereof were harvested for Western blotting against I-κBα. Western blotting results are shown in the upper panel of FIG. 3B. Western blotting was quantified using a densitometer, and the results are depicted in the lower panel of FIG. 3B. For each value, the mean of three independent experiments and standard deviations are given.
(In general: In western blotting, separated proteins are transferred to a membrane and probed.)

Experiment [6] relates to I-κBα in MDA231 cells. Described as above. Particulars: MDA-231; cultured 1 hr; cytoplasm fraction. The class given is cell-based, human. The protocol: as §5
Experiment [7] deals with NF-κB activity in MDA231 cells. As to the kind of experiment: pNF-κB-SEAP reporter assay. Particulars: MDA-231; glucosamine 5 mM; 24 hrs. The class given is cell-based, human. The protocol: (§6) MCF7/DOX and MDA231 cell lines were cultured in media supplemented with 10% fetal bovine serum (Gibco BRL), 1 mM sodium pyruvate (Gibco BRL) and 100 U/ml penicillin-streptomycin (Gibco BRL) at 37° C. in a humid 5% CO2 atmosphere. A pNF-κB-SEAP vector was transfected into the cells. 24 hrs after transfection, the cells were cultured in the presence of or absence of glucosamine (represented by GM, 5 mM) for 24 hrs. The cell culture was subjected to an SEAP assay, and the cells, after being harvested, were subjected to a β-galactosidase assay. The values obtained for the SEAP assay were corrected for transfection efficiency with a pGAL plasmid (1 μg). β-Galactosidase activity was measured to correct the SEAP activity. The SEAP assay was conducted according to the procedure set forth by the manufacturer (BD Biosciences Clontech, Co.). […] These experiments were done in triplicate and repeated at least three times. The values of each experiment are the mean of three independent experiments and the standard deviations.
(In general: Reporter assays use an easily measured gene product as a stand-in for the process of interest.)

The subject of experiment [8] is NF-κB activity in MCF7/DOX cells. As to the kind of experiment: pNF-κB-SEAP reporter assay. It counts as cell-based, human. Particulars: MCF-7/DOX; glucosamine 5 mM; 24 hrs. On the procedure:
as §6

On to `COc1cccc2c1C(=O)c1c(O)c3c(c(O)c1C2=O)C[C@@](O)(C(=O)CO)C[C@@H]3O[C@H]1C[C@H](N)[C@H](O)[C@H](C)O1` [doxorubicin, reference compound], for which the cell death result in experiment [1] and in experiment [2] was “almost all” in each case. Further, the apoptosis of cells entry is “about 50%” in experiment [3] (MCF 7/DOX, doxorubicin 90 μM alone) and “about 50%” in experiment [4] (MDA 231, doxorubicin 5 μM alone).

With `N[C@H]1C(O)O[C@H](CO)[C@@H](O)[C@@H]1O` (stereo partly drawn) [glucosamine], the “sensitivity to doxorubicin when treated with glucosamine vs not treated” value in experiment [3] (MCF 7/DOX, doxorubicin 90 μM, glucosamine 1.0 to 10 mM, 24 hrs) is “twice as (two times more=three times as) sensitive”; in experiment [4] (MDA 231, doxorubicin 5 μM, glucosamine 1.0 to 10 mM, 24 hrs), “twice as (two times more=three times as) sensitive”. Further, the “apoptosis frequency, anticancer agent in combination with glucosamine vs alone” value in experiment [3] (chemoresistant cells, FIG. 1 (MCF/DOX)) was “twice as frequently”; in experiment [4] (chemoresistant cells, FIG. 2 (MDA231)), “twice as frequently”. Further, the I-κBα level result in experiment [5] and in experiment [6] was “increase” each time. The NF-κB activity result in experiment [7] and in experiment [8] was “decrease” throughout.

(Values after patent publication US8343943B2, “Cancer sensitizer comprising glucosamine, glucosamine derivatives or salts thereof” (National Cancer Center, priority 2006, dated 2013).)
